Results: paper PMC7313430, “Heme-Dependent ER Stress Apoptosis: A Mechanism for the Selective Toxicity of the Dihydroartemisinin, NSC735847, in Colorectal Cancer Cells” (Frontiers in Oncology, 2020)

Legend:
FHC cells = assay: MTS cell viability assay, non-tumorigenic colon cells; assay type: cell-based; conditions: Homo sapiens, 24 h treatment
Experimental: (§1) The human colon cancer cell lines HT29 and HCT116 were cultured in McCoy's 5A medium (Sigma Aldrich, St. Louis, MO) containing 10% heat-inactivated fetal bovine serum (FBS), penicillin (100 units/ml), and streptomycin (100 μg/ml). The non-tumorigenic colon cell line, FHC, was cultured in DMEM: F12 (1:1) medium supplemented with 10% heat inactivated FBS, 25 mM HEPES (Thermo Fisher Scientific Inc., IL), 10 ng/ml cholera toxin (Sigma Aldrich, St. Louis, MO), 0.005 mg/ml insulin (Thermo Fisher Scientific Inc., IL), 0.005 mg/ml, transferrin (Sigma Aldrich, St. Louis, MO), 100 ng/ml hydrocortisone (Sigma Aldrich, St. Louis, MO), 20 ng/mL human recombinant epidermal growth factor (Thermo Fisher Scientific Inc., IL), 100 units/ml penicillin, and 100 μg/ml streptomycin.
(§2) Cells were cultured in 96-well-plates for 48 h before treatment. Serum-free media containing different agents was added to the cells at the concentration and time period described in the figure legend. MTS reagent (Promega, Madison, WI) was then added to each well and the absorbance was measured at 495 nm as directed by the manufacturer. In the presence of MTS reagent, the absorbance reading is proportional to the number of viable cells. The half-maximal inhibitory concentration (IC50) of the tested compounds is the concentration that reduces the viability of cells by 50%. IC50 was calculated after 24 h of treatment ([30], [31]) as described previously ([32]–[34]) from dose-response curves (log drug concentration vs. percentage viability from untreated cells) generated by non-linear regression analysis with GraphPad Prism 5 software (GraphPad Software, San Diego, California).

HCT116 cells = assay: MTS cell viability assay, colon cancer cells HCT116; assay type: cell-based, human; conditions: for IC50: Homo sapiens, HCT-116, MTS viability, 24 h treatment; for cytotoxic activity against HCT-116 cells: 3.1-25 μM
Experimental: as §1, §2

[1] = system: caspase 3/7 activity in HT29 cells; assay: Caspase-Glo 3/7 activity assay in HT29; assay type: cell-based, human; conditions: for tumor selectivity of apoptosis induction (caspase 3/7, words): 16 h, HT29 compared to HCT-116 and FHC; for effect of pretreatment on NSC735847-induced caspase 3/7 activity: HT29, pretreatment 1 h (GSK 10 μM, SAL 50 μM), then 10 μM NSC735847 16 h
Experimental: The cells were plated in white-walled 96-well-plates and then they were cultured at 37°C for 48 h. Serum-free culture medium containing the appropriate concentration of different agents was added to the cells for the indicated period of time. Caspase-Glo 3/7 reagent (Promega, Madison, WI) was added to each well and luminescence was detected as directed by the manufacturer. The Caspase-Glo 3/7 kit measures the activity of the executioner caspases 3 and 7 using the luminogenic substrate (Z-DEVD-aminoluciferin) as substrate.

HT29 cells = assay: MTS cell viability assay, colon cancer cells HT29; assay type: cell-based, human; conditions: for IC50: Homo sapiens, HT-29, MTS viability, 24 h treatment; for selective cytotoxicity toward colon cancer cells vs FHC: HT-29/HCT-116 compared to FHC; for effect of pretreatment on NSC735847-mediated cell death: HT29, MTS, pretreatment with the agent, then NSC735847 (10 μM; 5 μM for HTF) 24 h
Experimental: as §1, §2

[2] = system: P-PERK, P-eIF2α, CHOP10, PARP, caspase-3, ferritin in HT29 cells; assay: Western blot of ER stress and apoptosis proteins in HT29; assay type: cell-based, human; conditions: for effect of pretreatment on NSC735847-induced CHOP10 expression: HT29, pretreatment (GSK 10 μM, salubrinal 50 μM, SA 10 mM), then 10 μM NSC735847 8 h
Experimental: Western blot analysis was conducted as described previously ([35]). Briefly, the cells were cultured in 100 mm dishes for 48 h before treatment. The cells were then treated as described in the figure legends. For vehicle-treated samples, DMSO was added to serum-free culture medium at a maximum concentration of 0.1% (v/v). After experimentation, the cells were washed twice with phosphate buffer saline (PBS) and then 100 μl of Triton lysis buffer [25 mM HEPES, 100 mM NaCl, 1 mM EDTA, 10% (v/v) glycerol, 1% (v/v) Triton X-100], containing protease and […] inhibitors, was added to the cells. Protein concentrations were determined by using BCA reagents (Thermo Fisher Scientific Inc., IL). Equal concentrations of each sample were loaded onto SDS–PAGE gels and protein bands transferred to nitrocellulose membranes using semi-dry transfer cells (TRANS-BLOTSD; Bio-Rad Laboratories, Hercules, CA). The membranes were incubated for 2 h at room temperature in Odyssey blocking buffer (LI-COR Biosciences, Lincoln, NE). Membranes were then incubated overnight at 4C with primary antibody followed by 1 h of incubation at room temperature with secondary antibody. All primary antibodies were used at a dilution of 1:1,000 except anti-GAPDH and anti-CHOP10 antibodies which were used at 1:10,000 and 1:500 dilutions, respectively. All secondary antibodies were used at a dilution of 1:15,000. Protein bands were visualized using Odyssey® CLx digital fluorescence imaging system (LI-COR, Lincoln, Nebraska). Band intensities were quantified by using ImageJ software ([36]).

[3] = system: reactive oxygen species in HT29 cells; assay: Oxidative stress measurement with CM-H2DCFDA (DCF); assay type: cell-based, human; conditions: HT29, 0.25 mM Trolox 2 h, then 10 μM NSC735847 8 h
Experimental: Oxidative stress was measured in cultured cells by using the probe, chloromethyl-2′,7′ dichlorodihydrofluorescein diacetate (CM-H2DCFDA or DCF) purchased from Life Technologies (Grand Island, NY). […] The cells were loaded with 5 μM DCF in phenol red-free, serum-free medium for 30 min and then the cells were treated with the appropriate drug for the indicated period of time. The cells were then trypsinized and resuspended in serum-containing, phenol red-free medium. The fluorescence of DCF was measured using an Accuri C6 flow cytometer (BD Accuri Cytometers, Ann Arbor, MI) at an excitation wavelength of 488 and emission of 533 ± 30 nm.

[4] = MTS, 24 h, single agents or combinations

Molecule: CC1CCC2C(C)C(OCC(COC3OC4OC5(C)CCC6C(C)CCC(C3C)C46OO5)N3CCCCC3)OC3OC4(C)CCC1C32OO4 (stereo not drawn) [(4)]
- IC50 (FHC cells): > 25 µM
- IC50 (HCT116 cells): > 25 µM
- cytotoxic activity against HCT-116 cells (HCT116 cells; MTS, 24 h): inactive
- tumor selectivity of apoptosis induction (caspase 3/7, words) [1]: preferentially induced apoptosis in HT-29 compared to FHC cells
- IC50 (HT29 cells): > 25 µM
- selective cytotoxicity toward colon cancer cells vs FHC (HT29 cells; MTS, 24 h): more cytotoxic toward HT-29 than FHC cells

Molecule: CC1CCC2C(C)C(OCC(COC3OC4OC5(C)CCC6C(C)CCC(C3C)C46OO5)NCc3ccccc3)OC3OC4(C)CCC1C32OO4 (stereo not drawn) [(5)]
- IC50 (FHC cells): > 25 µM
- IC50 (HCT116 cells): > 25 µM
- cytotoxic activity against HCT-116 cells (HCT116 cells; MTS, 24 h): inactive
- tumor selectivity of apoptosis induction (caspase 3/7, words) [1]: preferentially induced apoptosis in HT-29 compared to FHC cells
- IC50 (HT29 cells): 15.2 ± 1.12 µM
- selective cytotoxicity toward colon cancer cells vs FHC (HT29 cells; MTS, 24 h): more cytotoxic toward HT-29 than FHC cells

Molecule: CC(=O)N(O)CCCCCNC(=O)CCC(=O)N(O)CCCCCNC(=O)CCC(=O)N(O)CCCCCN [DFO, deferoxamine, reference compound]
- effect of pretreatment on NSC735847-mediated ferritin protein expression ([2]; HT29, 100 μM DFO 4 h, then 10 μM NSC735847 24 h): inhibited NSC735847-mediated ferritin expression
- effect of pretreatment on NSC735847-mediated cell death (HT29 cells): did not prevent NSC735847-mediated cell death

Molecule: Cn1cc(-c2ccc3c(c2)CCN3C(=O)Cc2cccc(C(F)(F)F)c2)c2c(N)ncnc21 [GSK2606414, 7-methyl-5-(1-{[3-(trifluoromethyl)phenyl]acetyl}-2,3-dihydro-1H-indol-5-yl)-7H-p yrrolo[2,3-d]pyrimidin-4-amine, reference compound]
- effect of pretreatment on NSC735847-induced caspase 3/7 activity [1]: inhibited caspase 3/7 activity
- effect of pretreatment on NSC735847-induced PERK phosphorylation ([2]; HT29, 10 μM pretreatment 1 h, then 10 μM NSC735847 1 h): decreased the phosphorylation of PERK
- effect of pretreatment on NSC735847-induced CHOP10 expression [2]: decreased
- effect of pretreatment on NSC735847-mediated cell death (HT29 cells): suppressed NSC735847-mediated cell death

Molecule: O=C1[O][Pt]2([NH][C@@H]3CCCC[C@H]3[NH]2)[O]C1=O [OX, oxaliplatin, reference compound]
- cell death / survival of HCT116 cells (HCT116 cells; [4]): induced death in a concentration-dependent manner
- cell death / survival of HT29 cells (HT29 cells; [4]): induced death in a concentration-dependent manner

Molecule: O=C(CC(c1ccccc1)c1ccccc1)Cn1ccnc1 [QC-308, reference compound]
- effect of pretreatment on NSC735847-mediated cell death (HT29 cells): increased the cytotoxicity of NSC735847

Molecule: Cc1c(C)c2c(c(C)c1O)CCC(C)(C(=O)O)O2 (stereo not drawn) [Trolox, reference compound]
- effect of pretreatment on NSC735847-induced oxidative stress [3]: significant reduction in oxidative stress
- effect of pretreatment on NSC735847-mediated cell death (HT29 cells): did not rescue the cells from NSC735847-induced cytotoxicity

Molecule: CC1CCC2C(C)C(OCC(COC3OC4OC5(C)CCC6C(C)CCC(C3C)C46OO5)N3CCOCC3)OC3OC4(C)CCC1C32OO4 (stereo not drawn) [compound (1)]
- IC50 (FHC cells): > 25 µM
- IC50 (HCT116 cells): > 25 µM
- tumor selectivity of apoptosis induction (caspase 3/7, words) [1]: did not exhibit tumor selectivity
- IC50 (HT29 cells): > 25 µM
- selective cytotoxicity toward colon cancer cells vs FHC (HT29 cells; MTS, 24 h): not selectively cytotoxic toward either colon cancer cell line

Molecule: CC1CCC2C(C)C(OCC(COC3OC4OC5(C)CCC6C(C)CCC(C3C)C46OO5)NNC(=O)c3ccncc3)OC3OC4(C)CCC1C32OO4 (stereo not drawn) [compound (2)]
- IC50 (FHC cells): 23.2 ± 1.04 µM
- IC50 (HCT116 cells): 22.1 ± 1.06 µM
- tumor selectivity of apoptosis induction (caspase 3/7, words) [1]: increase in apoptosis in HT29 compared to HCT-116 and FHC cells
- IC50 (HT29 cells): 19.6 ± 1.06 µM
- selective cytotoxicity toward colon cancer cells vs FHC (HT29 cells; MTS, 24 h): not selectively cytotoxic toward either colon cancer cell line

Molecule: O=C(/C=C/c1ccccc1)NC(NC(=S)Nc1cccc2cccnc12)C(Cl)(Cl)Cl (stereo not drawn) [salubrinal, reference compound]
- effect of pretreatment on NSC735847-induced caspase 3/7 activity [1]: blocked
- effect of pretreatment on NSC735847-induced CHOP10 expression [2]: blocked CHOP10 expression
- effect of pretreatment on NSC735847-mediated cell death (HT29 cells): blocked

Molecule: CC(=O)CC(=O)CCC(=O)O [succinylacetone, reference compound]
- effect of pretreatment on NSC735847-induced CHOP10 expression [2]: blunted NSC735847-induced CHOP10 expression
- effect of pretreatment on NSC735847-mediated cell death (HT29 cells): rescued the cells from the cytotoxic effects of NSC735847

Molecule: HTF: iron-loaded transferrin molecule
- effect of pretreatment on NSC735847-mediated cell death (HT29 cells): did not enhance the killing effect of NSC735847
